From patent publication US20120165334A1, “Indole/Benzimidazole Compounds as mTOR Kinase Inhibitors” (AMGEN INC., priority 2009, published 2012) come the findings set out here.

The target of one experiment is PI3Ka (Homo sapiens, UniProt P42336). As to the kind of experiment: PI3Ka Alpha assay. Type of experiment: biochemical. To be noted: the values are: IC50.
Experiment [1] deals with phosphorylation of Akt at Serine 473. Put plainly: pAkt AlphaScreen in U87 MG cells. Type of experiment: cell-based. To be noted: read-out: AA11809+++pAKT_U87_IC50_IP. The method, then:
The pAkt AlphaScreen assay determines whether there is phosphorylation of Akt at Serine 473 by recruitment of a phosphospecific antibody. This assay was performed using U87 MG cells. […] The cells were maintained weekly using 0.05% Trypsin (Gibco, 25300-054) and replated in 150 mm TC—Treated Culture Dishes (Corning, 430599).
The first day of the assay, the adherent cells were trypsinized, media was added to the loose cells and cells were mixed to a homogenous mixture. 0.5 ml of the homogenous mixture was counted on the Beckman Coulter® Vi-CELL™ XR. 50 frames of cells were counted and the number of viable cells was determined. The cells were then diluted to 0.25 million cells per ml, and centrifuged at 200 rcf for 5 minutes. The media was removed and the cells were reconstituted in fresh media for plating. The cells were plated at 20 μl per well on the PerkinElmer® FlexDrop PLUS in Low Volume 384 Well White Tissue Culture Plates (Corning, 3826) with a final cell density of 5K cells per well. The plates were incubated overnight at 37° Celsius, 5% CO2.
On the second day, the compound plates were prepared, the cells were treated with compound and the pAkt reaction mix was added to the cell lysate. 384 well compound plates were prepared by Amgen's Sample Bank containing […] of compound per well starting at 5 mM and diluted 1:2 across the row, resulting in a 22 well serial dilution. 39 μl of growth media was added to the compound plate in rows 1-22 using the PerkinElmer® FlexDrop PLUS resulting in a DMSO concentration of 2.5%. The control columns were added manually; 40 μl of 2.5% DMSO (Sigma, D4540-100 ml) in growth media was added to the plate for the high control and 40 μl of 50 μM of AMG2203766 with 2.5% DMSO was added to the plate as the low control. The cell plates and diluted compound plates were put onto the VELOCITY1 1™ VPREP™ 384 ST where the compound plate was mixed and 5 μl of serially diluted compound or controls was added to the cell plate. […] The cell plates were then incubated with compound for two hours at 37° Celsius, 5% CO2. After two hours, the media in the cell plates was aspirated using the BioTek® ELx405HT plate washer removing the majority of media and compound without disturbing the adherent U87 cells. The following assay reagents are components of the SureFire Akt (Ser 473) Phosphorylation 50K Point Kit (TGR BioSciences, TGRAS50K) and an IgG Detection Kit (PerkinElmer, 6760617R). […] The plates were then incubated at room temperature on a shaker for ten minutes. The AlphaScreen reaction was prepared under low light conditions (subdued or green light) including p-Akt (Ser 473) Reaction Buffer, Dilution Buffer, Activation Buffer, Acceptor Beads and Donor Beads at a ratio of 40:20:10:1:1 respectively. The AlphaScreen reaction was added to the cell lysate at 6 μl per well using the PerkinElmer® FlexDrop PLUS. The plates were placed in a humid environment to reduce edge effects and incubated overnight at room temperature with restricted air flow in the dark.
On the final day of the experiment, the plates were read on the PerkinElmer® EnVision™ 2103 Multilable Reader using the standard AlphaScreen readout. The POC is calculated and the data is analyzed to report the IC50 IP for pAkt at Serine 473.

Another experiment addresses T1, mTOR (Homo sapiens, UniProt P42345).
T1 construct: 2.5 μl of 0.6 μg/ml of mTOR Enzyme (Amgen) was added to rows 1-23
As to the kind of experiment: mTOR LanthaScreen (TR-FRET, phosphorylation of 4EBP1). Type of experiment: biochemical. To be noted: read-out: AA11016+++mTor_MA_IC50_IP. On the procedure:
The mTOR LanthaScreen is a TR-FRET assay measuring the phosphorylation of mTOR's substrate 4EBP1. 384 well compound plates were prepared containing 1 μl of compound per well starting at 5 mM and diluted 1:2 across the row, resulting in a 22 well serial dilution.
The assay was conducted on the PerkinElmer® FlexDrop PLUS. A 5 μl mix of 800 nM GFP-4E-BP1 (Invitrogen, PV4759) and 20 μM ATP (Amgen) was added to rows 1-24. 2.5 μl of 0.6 μg/ml of mTOR Enzyme (Amgen) was added to rows 1-23. 2.5 μl of assay buffer was added to row 24 for the low control. […] The final concentrations in the assay reagents were 400 nM GFP-4E-BP1, 10 μM of ATP and 0.15 μg/ml of mTOR enzyme. The compound, enzyme, and substrate incubate for 90 minutes.

Where [2] appears, read: U87 MG cells, two hours with compound.
[3] abbreviates: Homo sapiens, U-87 MG, 2 h, U87 MG cells, two hours with compound.

Like-named read-outs stand apart in the source and are kept apart here.

Chain of PI3Ka (P42336 whole entry): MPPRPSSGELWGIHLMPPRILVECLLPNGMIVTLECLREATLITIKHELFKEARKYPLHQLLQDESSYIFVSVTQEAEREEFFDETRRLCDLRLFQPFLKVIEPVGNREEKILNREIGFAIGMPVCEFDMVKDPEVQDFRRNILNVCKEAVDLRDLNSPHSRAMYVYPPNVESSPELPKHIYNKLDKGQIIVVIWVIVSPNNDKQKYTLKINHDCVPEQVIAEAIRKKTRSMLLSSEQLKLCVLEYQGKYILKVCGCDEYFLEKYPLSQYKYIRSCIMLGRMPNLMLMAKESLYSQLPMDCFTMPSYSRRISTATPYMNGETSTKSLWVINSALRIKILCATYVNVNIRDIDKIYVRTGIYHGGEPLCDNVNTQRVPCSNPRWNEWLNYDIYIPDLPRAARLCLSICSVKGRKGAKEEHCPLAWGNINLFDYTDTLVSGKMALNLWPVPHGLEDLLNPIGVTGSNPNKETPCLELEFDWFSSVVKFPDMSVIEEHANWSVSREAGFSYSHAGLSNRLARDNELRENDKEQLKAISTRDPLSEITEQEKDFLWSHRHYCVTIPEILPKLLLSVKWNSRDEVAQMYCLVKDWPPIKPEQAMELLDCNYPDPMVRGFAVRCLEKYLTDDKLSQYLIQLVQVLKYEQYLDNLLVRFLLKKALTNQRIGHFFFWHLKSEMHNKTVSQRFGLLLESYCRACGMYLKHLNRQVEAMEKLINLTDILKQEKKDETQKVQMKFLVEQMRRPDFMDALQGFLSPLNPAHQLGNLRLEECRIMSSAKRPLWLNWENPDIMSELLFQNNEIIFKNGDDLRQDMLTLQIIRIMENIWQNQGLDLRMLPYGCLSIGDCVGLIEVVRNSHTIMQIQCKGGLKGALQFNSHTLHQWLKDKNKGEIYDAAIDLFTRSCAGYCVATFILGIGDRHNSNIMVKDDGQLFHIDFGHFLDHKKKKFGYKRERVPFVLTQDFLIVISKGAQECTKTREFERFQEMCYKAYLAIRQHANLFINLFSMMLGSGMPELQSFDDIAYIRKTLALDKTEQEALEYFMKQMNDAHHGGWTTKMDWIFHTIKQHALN
Chain of PI3Ka (P27986 whole entry partner): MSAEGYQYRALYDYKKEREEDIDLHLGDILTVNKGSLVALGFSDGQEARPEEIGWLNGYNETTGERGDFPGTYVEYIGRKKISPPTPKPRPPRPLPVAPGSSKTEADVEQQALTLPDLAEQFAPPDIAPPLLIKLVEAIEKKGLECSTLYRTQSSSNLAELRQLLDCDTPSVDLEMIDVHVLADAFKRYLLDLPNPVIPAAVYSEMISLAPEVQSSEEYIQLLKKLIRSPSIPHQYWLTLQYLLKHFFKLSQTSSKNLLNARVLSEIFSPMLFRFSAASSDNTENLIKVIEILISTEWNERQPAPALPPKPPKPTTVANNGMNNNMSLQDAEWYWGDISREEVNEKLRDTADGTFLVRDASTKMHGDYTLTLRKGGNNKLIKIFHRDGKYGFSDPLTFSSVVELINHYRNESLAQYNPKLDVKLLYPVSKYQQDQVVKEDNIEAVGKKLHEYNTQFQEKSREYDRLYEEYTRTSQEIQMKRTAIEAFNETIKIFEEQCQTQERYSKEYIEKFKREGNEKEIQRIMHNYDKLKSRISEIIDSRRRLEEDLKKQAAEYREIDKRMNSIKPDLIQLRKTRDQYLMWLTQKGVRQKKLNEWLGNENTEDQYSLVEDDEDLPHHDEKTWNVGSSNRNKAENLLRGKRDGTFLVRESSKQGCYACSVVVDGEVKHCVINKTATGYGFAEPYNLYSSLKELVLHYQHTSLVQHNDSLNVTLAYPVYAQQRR

For “1-(4-((1-(4-amino-6-methyl-1,3,5-triazin-2-yl)-1H-benzimidazol-2-yl)amino)phenyl)-3-(3,5-dichlorophenyl)thiourea [Cpd 108]”, at PI3Ka, the AA12047+++PI3Ka Alpha IC50 IP worked out at 470 nM. Further, the IC50 amounted to 1070 nM in experiment [1] (setting [2]) and 2290 nM at mTOR.
Compound “1-(4-amino-6-methyl-1,3,5-triazin-2-yl)-N-(1-(4-morpholinylcarbonyl)-1H-pyrazol-4-yl)-1H-benzimidazol-2-amine [Cpd 198]” yielded an AA12047+++PI3Ka Alpha IC50 IP on PI3Ka of 2550 nM.
As for `CNC(=O)Nc1ccc(Nc2nc3ccccc3n2-c2nc(C)nc(NCC#N)n2)cc1` [Cpd 111], the AA12047+++PI3Ka Alpha IC50 IP on PI3Ka worked out at 52.8 nM. For the same compound, the IC50 is 69.9 nM in experiment [1] (setting [3]) and 0.765 nM on mTOR.
`Cc1nc(N)nc(-n2c(Nc3ccc(NC(=O)Nc4ccncc4)cc3)nc3ccccc32)n1` [Cpd 115] registered an AA12047+++PI3Ka Alpha IC50 IP on PI3Ka of 7.31 nM. For the same compound, the IC50 in experiment [1] (setting [3]) is 132 nM; on mTOR, 4.4 nM.
Compound `Cc1nc(N)nc(-n2c(Nc3cnn(C(=O)N4CCOCC4)c3)nc3ccccc32)n1` [Cpd 201] yielded an AA12047+++PI3Ka Alpha IC50 IP at PI3Ka of 3520 nM. In addition, the IC50 in experiment [1] (setting [3]) is 652 nM.
`Cc1nc(N)nc(-n2c(Nc3cccc(O)c3)nc3ccc(C(=O)O)cc32)n1` [Cpd 2, 1-(4-amino-6-methyl-1,3,5-triazin-2-yl)-2-((3-hydroxyphenyl)amino)-1H-benzimidazole-6-carboxylic acid]: the IC50 in experiment [1] (setting [3]) is 224 nM; on mTOR, 1.38 nM.
As for “4-((1-(4-amino-6-methyl-1,3,5-triazin-2-yl)-1H-benzimidazol-2-yl)amino)-N-4-pyridinylbenzamide [Cpd 157]”, the AA12047+++PI3Ka Alpha IC50 IP at PI3Ka turned out to be 31800 nM. The figures for the IC50 (in experiment [1] (setting [2]); at mTOR) were 767 nM and 194 nM, respectively.
The corresponding values for “1-(4-amino-6-methyl-1,3,5-triazin-2-yl)-N-(6-methoxy-3-pyridinyl)-1H-benzimidazol-2-amine [Cpd 151]” are 4550 nM, 88.9 nM and 124 nM.
Compound “1-(4-amino-6-methyl-1,3,5-triazin-2-yl)-N-1H-pyrazol-5-yl-5-(4-pyridinyl)-1H-benzimidazol-2-amine [Cpd 144]” registered an AA12047+++PI3Ka Alpha IC50 IP on PI3Ka of 7260 nM. Moreover, the IC50 in experiment [1] (setting [2]) came out at 125 nM; on mTOR, 66.6 nM.
On PI3Ka, `CNc1nc(C)nc(-n2c(Nc3cc[nH]n3)nc3cc(C)c(C)cc32)n1` [Cpd 138] registered an AA12047+++PI3Ka Alpha IC50 IP of 1390 nM. The values for the IC50 (in experiment [1] (setting [3]); at mTOR) were 158 nM and 38.7 nM, respectively.
Compound “1-(4-amino-6-methyl-1,3,5-triazin-2-yl)-N-cyclopropyl-1H-benzimidazol-2-amine [Cpd 61]” came in with an AA12047+++PI3Ka Alpha IC50 IP on PI3Ka of 3830 nM. For the same compound, the IC50 in experiment [1] (setting [2]) worked out at 1040 nM; on mTOR it was 10800 nM.
`Cc1nc(N)nc(-n2c(Nc3ccn[nH]3)nc3cc(F)c(F)cc32)n1` [Cpd 9, 1-(4-amino-6-methyl-1,3,5-triazin-2-yl)-5,6-difluoro-N-1H-pyrazol-5-yl-1H-benzimidazol-2-amine]: at PI3Ka, the AA12047+++PI3Ka Alpha IC50 IP was found to be 485 nM. Also, the IC50 in experiment [1] (Homo sapiens, U-87 MG, 2 h) worked out at 44.6 nM; at mTOR, 24.3 nM.
The corresponding values for `Cc1nc(N)nc(-n2c(Nc3cc(O)cc(O)c3)nc3ccccc32)n1` [Cpd 1, 5-((1-(4-amino-6-methyl-1,3,5-triazin-2-yl)-1H-benzimidazol-2-yl)amino)-1,3-benzenediol] are 0.646 nM, 4.96 nM and 0.269 nM.
As to “3-((4-methyl-6-(2-(1H-pyrazol-3-ylamino)-1H-benzimidazol-1-yl)-1,3,5-triazin-2-yl)amino)propanenitrile [Cpd 141]”, the IC50 in experiment [1] (setting [2]) worked out at 203 nM.
The compound “1-(4-((cyclopropylmethyl)amino)-6-methyl-1,3,5-triazin-2-yl)-N-1H-pyrazol-3-yl-1H-benzimidazol-2-amine [Cpd 170]” displayed an AA12047+++PI3Ka Alpha IC50 IP at PI3Ka of 1370 nM. Besides, the results for the IC50 (in experiment [1] (setting [2]); on mTOR) were 1680 nM and 1170 nM, respectively.
“1-(4-methyl-6-((2-(4-morpholinyl)ethyl)amino)-1,3,5-triazin-2-yl)-N-1H-pyrazol-3-yl-1H-benzimidazol-2-amine [Cpd 156]” had an AA12047+++PI3Ka Alpha IC50 IP on PI3Ka of 14.6 nM. Besides, the IC50 was 54.7 nM in experiment [1] (setting [2]) and 183 nM at mTOR.
